Structures are written as SMILES.

As a reminder, the IC50 is the concentration at which inhibition is half-maximal. High values mean a need for much substance, low ones inhibition by little substance.

The target of this assay is Dihydroorotate dehydrogenase (quinone), mitochondrial (Homo sapiens, UniProt Q02127). The assay is described as follows: Inhibition of human dihydroorotate dehydrogenase.
Sequence of Dihydroorotate dehydrogenase (quinone), mitochondrial (Q02127 whole entry): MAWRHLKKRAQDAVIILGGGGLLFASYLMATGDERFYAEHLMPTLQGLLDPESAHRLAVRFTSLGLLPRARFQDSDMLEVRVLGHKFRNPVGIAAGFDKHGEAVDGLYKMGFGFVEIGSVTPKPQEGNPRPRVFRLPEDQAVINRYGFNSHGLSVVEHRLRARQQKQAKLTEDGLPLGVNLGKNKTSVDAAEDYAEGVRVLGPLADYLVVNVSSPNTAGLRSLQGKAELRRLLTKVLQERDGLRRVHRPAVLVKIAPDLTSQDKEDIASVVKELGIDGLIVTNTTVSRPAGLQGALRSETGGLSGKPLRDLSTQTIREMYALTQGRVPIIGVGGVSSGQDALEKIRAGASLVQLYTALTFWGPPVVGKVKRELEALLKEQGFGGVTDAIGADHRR

With `CCC(=O)C(C#N)C(=O)Nc1ccc(-c2cccc(Cl)c2)c(C(=O)OC)c1` (configuration not stated), the IC50 came out at 31 nM. Turning to `CCC(=O)C(C#N)C(=O)Nc1ccc(-c2ccc(F)cc2F)c(C(=O)OC)c1` (configuration not stated), 31 nM corresponded to half-maximal inhibition (IC50). Consider `CCC(=O)C(C#N)C(=O)Nc1ccc(-c2ccc(F)nc2)c(C(=O)OC)c1` (configuration not stated), for which the IC50 is 150 nM. The same measure for `CCC(=O)C(C#N)C(=O)Nc1ccc(-c2ccc(F)cc2OC)c(C(=O)OC)c1` (configuration not stated): 66 nM. As for `CCC(=O)C(C#N)C(=O)Nc1ccc(-c2ccc3c(c2)OCCO3)c(C(=O)OC)c1` (configuration not stated), the figure is 66 nM; as for `CCC(=O)C(C#N)C(=O)Nc1ccc(OS(=O)(=O)C(F)(F)F)cc1` (configuration not stated), 150 nM. As for `CCC(=O)C(C#N)C(=O)Nc1ccc(-c2cccc(OC3CCC3)c2)c(C(=O)OC)c1` (configuration not stated), the figure is 31 nM.
